Measurements taken from patent US20070128217A1 (priority 2003, published 2007).

Columns and labels:
[1] = tested on: antibodies in sera from SARS patients (sera 1a, 1b, 2, 6, 37, 62, London, SARS-yellow, SARS-green); format: binding, human; parameters: Binding of serum 6 to linear peptides of protein X1 of SARS-CoV Urbani / Binding of serum 37 to linear peptides of protein X1 of SARS-CoV Urbani / Binding of serum 6 to looped/cyclic peptide (PEPSCAN-ELISA) / Binding of serum 37 to looped/cyclic peptide (PEPSCAN-ELISA) / Binding of serum 37 to looped/cyclic peptides of protein X1 of SARS-CoV Urbani / Binding of serum 6 to linear peptides of protein X2 / Binding of serum 37 to linear peptides of protein X2 / Binding of serum 37 to looped/cyclic peptides of protein X2 of SARS-CoV Urbani / Binding of serum 6 to linear peptides of protein M of SARS-CoV Urbani / Binding of serum 37 to linear peptides of protein M of SARS-CoV Urbani / Binding of serum 6 to looped/cyclic peptides of protein M of SARS-CoV Urbani / Binding of serum 37 to looped/cyclic peptides of protein M of SARS-CoV Urbani / Binding of serum 6 to linear peptides of protein X3 of SARS-CoV Urbani / Binding of serum 37 to linear peptides of protein X3 of SARS-CoV Urbani / Binding of serum 37 to looped/cyclic peptides of protein X3 of SARS-CoV Urbani / Binding of serum 6 to linear peptides of protein X4 of SARS-CoV Urbani / Binding of serum 37 to linear peptides of protein X4 of SARS-CoV Urbani / Binding of serum 37 to looped/cyclic peptides of protein X4 of SARS-CoV Urbani / Binding of serum 6 to linear peptides of protein X5 of SARS-CoV Urbani / Binding of serum 37 to linear peptides of protein X5 of SARS-CoV Urbani / Binding of serum 37 to looped/cyclic peptides of protein X5 of SARS-CoV Urbani / Binding of serum 6 to linear peptides of protein N of SARS-CoV Urbani / Binding of serum 37 to linear peptides of protein N of SARS-CoV Urbani / Binding of serum 6 to linear peptide (PEPSCAN-ELISA) / Binding of serum 1a to looped/cyclic peptides of protein N of SARS-CoV Urbani / Binding of serum 1b to looped/cyclic peptides of protein N of SARS-CoV Urbani / Binding of serum 2 to looped/cyclic peptides of protein N of SARS-CoV Urbani / Binding of serum 6 to looped/cyclic peptides of protein N of SARS-CoV Urbani / Binding of serum 37 to looped/cyclic peptides of protein N of SARS-CoV Urbani / Binding of serum 62 to looped/cyclic peptides of protein N of SARS-CoV Urbani / Binding of serum London to looped/cyclic peptides of protein N of SARS-CoV Urbani / Binding of serum SARS-green to looped/cyclic peptides of protein N of SARS-CoV Urbani: unit not given here
[2] = tested on: control sera (pooled serum of ten healthy LUMC hospital workers; commercial negative donor pooled serum from the Dutch bloodbank); format: binding, human; parameters: Binding of Control serum LUMC to linear peptides / Binding of Control serum Blood-bank to linear peptides / Binding of Control serum LUMC to looped peptides / Binding of Control Serum Blood-Bank to Looped peptides / Binding of Control serum LUMC to linear peptides of the protein M of SARS-CoV Urbani / Binding of Control serum Blood-bank to linear peptides of the protein M of SARS-CoV Urbani / Binding of Control serum LUMC to looped peptides of the protein M of SARS-CoV Urbani / Binding of Control Serum Blood-Bank to Looped peptides of the protein M of SARS-CoV Urbani: unit not given here
[3] = tested on: rabbit serum obtained by immunizing a rabbit with the SARS-CoV strain Frankfurt 1; format: binding; parameters: Binding of a rabbit serum to linear peptides / Binding of a rabbit serum to looped peptides / Rabbit serum linear peptides / Rabbit serum looped peptides / Binding of a rabbit serum to linear peptides of protein N of SARS-CoV Urbani (Rabbit serum linear peptides) / Binding of a rabbit serum to looped/cyclic peptides of protein N of SARS-CoV Urbani (Rabbit serum looped peptides): unit not given here

Sequence: STQITTDTGIENATF
- Binding of serum 1a to linear peptides of protein X1 of SARS-CoV Urbani [1]: 0.5
- Binding of serum 1a to looped/cyclic peptides of protein X1 of SARS-CoV Urbani [1]: 0.6
- Binding of serum 1b to linear peptides of protein X1 of SARS-CoV Urbani [1]: 0.4
- Binding of serum 1b to looped/cyclic peptides of protein X1 of SARS-CoV Urbani [1]: 0.4
- Binding of serum 2 to linear peptides of protein X1 of SARS-CoV Urbani [1]: 0.4
- Binding of serum 2 to looped/cyclic peptides of protein X1 of SARS-CoV Urbani [1]: 0.3
- Binding of serum 6 to linear peptides of protein X1 of SARS-CoV Urbani [1]: 0.5
- Binding of serum 6 to looped/cyclic peptides of protein X1 of SARS-CoV Urbani [1]: 0.3
- Binding of serum 37 to linear peptides of protein X1 of SARS-CoV Urbani [1]: 0.6
- Binding of serum 37 to looped/cyclic peptides of protein X1 of SARS-CoV Urbani [1]: 0.6
- Binding of serum 62 to linear peptides of protein X1 of SARS-CoV Urbani [1]: 0.4
- Binding of serum 62 to looped/cyclic peptides of protein X1 of SARS-CoV Urbani [1]: 0.6
- Binding of serum London to linear peptides of protein X1 of SARS-CoV Urbani [1]: 0.2
- Binding of serum London to looped/cyclic peptides of protein X1 of SARS-CoV Urbani [1]: 0.2
- Binding of serum SARS-green to linear peptides of protein X1 of SARS-CoV Urbani [1]: 0.3
- Binding of serum SARS-green to looped/cyclic peptides of protein X1 of SARS-CoV Urbani [1]: 0.4
- Binding of serum SARS-yellow to linear peptides of protein X1 of SARS-CoV Urbani [1]: 0.2
- Binding of serum SARS-yellow to looped/cyclic peptides of protein X1 of SARS-CoV Urbani [1]: 0.4
- Binding of Control Serum Blood-Bank to Looped peptides [2]: 0.5
- Binding of Control serum Blood-bank to linear peptides [2]: 0.5
- Binding of Control serum LUMC to linear peptides [2]: 0.6
- Binding of Control serum LUMC to looped peptides [2]: 0.6
- Binding of a rabbit serum to linear peptides [3]: 0.1
- Binding of a rabbit serum to looped peptides [3]: 0.7

Sequence: SYFVASFRLFARTRS
- Binding of serum 1a to linear peptides of protein M of SARS-CoV Urbani [1]: 0.7
- Binding of serum 1b to linear peptides of protein M of SARS-CoV Urbani [1]: 0.6
- Binding of serum 2 to linear peptides of protein M of SARS-CoV Urbani [1]: 0.5
- Binding of serum 6 to linear peptides of protein M of SARS-CoV Urbani [1]: 0.5
- Binding of serum 37 to linear peptides of protein M of SARS-CoV Urbani [1]: 0.4
- Binding of serum 62 to linear peptides of protein M of SARS-CoV Urbani [1]: 0.4
- Binding of serum London to linear peptides of protein M of SARS-CoV Urbani [1]: 0.3
- Binding of serum SARS-green to linear peptides of protein M of SARS-CoV Urbani [1]: 0.4
- Binding of serum SARS-yellow to linear peptides of protein M of SARS-CoV Urbani [1]: 0.1
- Recognition of the peptide by sera of SARS-CoV infected individuals, and form (linear, looped/cyclic) in which it is recognized [1]: recognized in looped/cyclic form
- Binding of Control Serum Blood-Bank to Looped peptides of the protein M of SARS-CoV Urbani [2]: 1.0
- Binding of Control serum Blood-bank to linear peptides of the protein M of SARS-CoV Urbani [2]: 0.6
- Binding of Control serum LUMC to linear peptides of the protein M of SARS-CoV Urbani [2]: 0.5
- Binding of Control serum LUMC to looped peptides of the protein M of SARS-CoV Urbani [2]: 0.9
- Rabbit serum linear peptides [3]: 0.2
- Rabbit serum looped peptides [3]: 0.4

Sequence: TAAFRDVLVVLNKRT
- Binding of serum 1a to linear peptides of protein X5 of SARS-CoV Urbani [1]: 0.5
- Binding of serum 1a to looped/cyclic peptides of protein X5 of SARS-CoV Urbani [1]: 0.7
- Binding of serum 1b to linear peptides of protein X5 of SARS-CoV Urbani [1]: 0.6
- Binding of serum 1b to looped/cyclic peptides of protein X5 of SARS-CoV Urbani [1]: 0.6
- Binding of serum 2 to linear peptides of protein X5 of SARS-CoV Urbani [1]: 0.6
- Binding of serum 2 to looped/cyclic peptides of protein X5 of SARS-CoV Urbani [1]: 0.7
- Binding of serum 6 to linear peptides of protein X5 of SARS-CoV Urbani [1]: 0.6
- Binding of serum 6 to looped/cyclic peptides of protein X5 of SARS-CoV Urbani [1]: 0.9
- Binding of serum 37 to linear peptides of protein X5 of SARS-CoV Urbani [1]: 0.5
- Binding of serum 37 to looped/cyclic peptides of protein X5 of SARS-CoV Urbani [1]: 0.6
- Binding of serum 62 to linear peptides of protein X5 of SARS-CoV Urbani [1]: 0.5
- Binding of serum 62 to looped/cyclic peptides of protein X5 of SARS-CoV Urbani [1]: 0.6
- Binding of serum London to linear peptides of protein X5 of SARS-CoV Urbani [1]: 0.5
- Binding of serum London to looped/cyclic peptides of protein X5 of SARS-CoV Urbani [1]: 1.1
- Binding of serum SARS-green to linear peptides of protein X5 of SARS-CoV Urbani [1]: 0.2
- Binding of serum SARS-green to looped/cyclic peptides of protein X5 of SARS-CoV Urbani [1]: 0.5
- Binding of serum SARS-yellow to linear peptides of protein X5 of SARS-CoV Urbani [1]: 0.7
- Binding of serum SARS-yellow to looped/cyclic peptides of protein X5 of SARS-CoV Urbani [1]: 0.5
- Binding of Control Serum Blood-Bank to Looped peptides [2]: 0.8
- Binding of Control serum Blood-bank to linear peptides [2]: 0.7
- Binding of Control serum LUMC to linear peptides [2]: 0.8
- Binding of Control serum LUMC to looped peptides [2]: 0.6
- Rabbit serum linear peptides [3]: 0.3
- Rabbit serum looped peptides [3]: 0.4
